Measurements as given in patent publication US20140038953A1, “COMPOSITIONS AND METHODS FOR CARDIOVASCULAR DISEASE” (THE GENERAL HOSPITAL CORPORATION, priority 2011, published 2014).
Entries after “also recorded” stand apart in the source; their conditions may differ.

Legend:
[1] = Body weight, food intake and bone mineral density in LDLR−/− mice; assay type: in vivo; settings: 2.5 mg/kg ip daily, vs vehicle
[2] = system: human aortic endothelial cells; assay: Reactive oxygen species in human aortic endothelial cells; assay type: cell-based; settings: HAECs, compound 13 100 nM, ALK3-Fc 500 ng/mL
Procedure: Cells plated in a 96-well format were pre-treated with compound 13, ALK3-Fc, or vehicle for 30 min followed by treatment with oxidized LDL, BMP2, or vehicle for 20 hours after starvation for six hours. H2O2 production with chloromethyl 2′,7′-dichlorodihydrofluorescein diacetate (DCF, 2 μM) and NADPH oxidase activity with lucigenin were measured as previously described. (Ichinose, F., et al. Cardiomyocyte-specific overexpression of nitric oxide synthase 3 prevents myocardial dysfunction in murine models of septic shock. Circ Res 100, 130-139 (2007); Sorescu, G. P., et al. Bone morphogenic protein 4 produced in endothelial cells by oscillatory shear stress induces monocyte adhesion by stimulating reactive oxygen species production from a nox1-based NADPH oxidase. Circ Res 95, 773-779 (2004); and Abid, M. R., Spokes, K. C., Shih, S. C. & Aird, W. C. NADPH oxidase activity selectively modulates vascular endothelial growth factor signaling pathways. J Biol Chem 282, 35373-35385 (2007).)
Hepatoma G2 (HepG2) cells and human aortic endothelial cells (HAECs) were purchased from the American type culture collection (Manassas, Va.). HepG2 cells were maintained in Eagle's Minimum Essential Medium (EMEM) supplemented with 10% fetal bovine serum, 100 units/ml of penicillin, 0.1 mg/ml of streptomycin and glutamine. HAECs were cultured in endothelial cell basal medium (EBM 2) supplemented with the EBM2 bullet kit (Lonza, Basel, Switzerland). For experiments, cells were seeded into 6 or 12-well plates (BD Falcon, Franklin Lakes, N.J.) at a concentration of 0.5×10^6 cells per 5 mL of media. HAECs were maintained in EBM 2 with 0.1% FBS without additional growth factors for all experiments. HepG2 cells were grown to 70% confluence before they were incubated in EMEM enriched with 0.1% FBS. ApoB-100 measurements were performed in supernatants from HepG2 that had been incubated in EMEM containing 0.5% bovine serum albumin using a commercially available Human ApoB-100 ELISA kit (Mabtech AB, Nacka Strand, Sweden). […]

MGP−/− mice = assay: Aortic calcification in MGP−/− mice (Alizarin red, OsteoSense); assay type: in vivo; settings: for aortic tissue calcium (Alizarin red staining): 28 days old
Procedure: MGP−/− mice were treated with either vehicle or the small molecule BMP type I receptor inhibitor compound 13 (2.5 mg/kg once daily IP) from day 1 to 28. Compound 13 is used as a BMP inhibitor positive control compound in these experiments. Whole aortas were harvested for phospho-Smad 1/5/8 (P-Smad) immunohistochemistry, a marker of BMP signaling, and for Alizarin Red staining of calcium. Osteogenic activity in aortas was visualized ex vivo by the uptake of a fluorescent bisphosphonate imaging probe. MGP−/− mice were also treated with vehicle or compound 13 to ascertain if inhibition of BMP signaling could impact survival, using Kaplan-Meier and Cox regression analysis.
MGP−/− mice were treated with intraperitoneal (IP) injections of either vehicle or compound 13 at 2.5 mg/kg/day from day 1-28. At day 28, aortas were harvested for both histology and RNA isolation. […] To further quantify aortic calcium, a fluorescent bisphosphonate agent that specifically binds to hydroxyapatite (OsteoSense 680 nm, Perkin Elmer) was used. (Aikawa E, et al. Multimodality molecular imaging identifies proteolytic and osteogenic activities in early aortic valve disease. Circulation. 2007; 115(3):377-386 and Zaheer A, et al. In vivo near-infrared fluorescence imaging of osteoblastic activity. Nature biotechnology. 2001; 19(12):1148-1154.) MGP−/− mice at 27 days of age treated with vehicle or compound 13 received OsteoSense via tail vein, and 24 h later, aortas were harvested for imaging. […] The reduction in BMP signaling and aortic calcification observed with compound 13 treatment of MGP−/− mice was associated with a >5-fold reduction in aortic Wnt3a gene expression, implicating the Wnt signaling pathway as an important mediator of BMP-dependent osteogenic differentiation (P<0.01).
MGP−/− mice were treated with vehicle (n=7), compound 13 (2.5 mg/kg/day IP, n=6), or ALK3-Fc (2 mg/kg QOD IP, n=4) beginning on day 1 after birth. At day 27, mice were injected via the tail vein with a fluorescent bisphosphonate probe (Osteosense 680 nm, 2 nmol per mouse) that targets tissue calcification. Twenty-four hours later, aortae were harvested and imaged.

## c1ccc2c(-c3cnn4cc(-c5ccc(N6CCNCC6)cc5)cnc34)ccnc2c1 [Compound 13, 4-[6-(4-piperazin-1-ylphenyl)pyrazolo[1,5-a]pyrimidin-3-yl]quinoline]
[1]; 6 weeks high fat diet, 2.5 mg/kg
  food intake per gram body weight: did not differ significantly; also recorded: not associated with a reduction in body weight or food intake
[1]; 20 weeks high fat diet, 2.5 mg/kg
  body weight: did not differ significantly; also recorded: not associated with a reduction in body weight or food intake
[1]; HFD 20 weeks
  bone mineral density (femur, dual energy X-ray absorptiometry): did not differ
[2]; BMP2 20 ng/mL
  BMP2-induced generation of reactive oxygen species (DCF fluorescence): compound 13- and ALK3-Fc-sensitive manner
[2]; oxLDL 80 μg/mL
  oxLDL-induced generation of reactive oxygen species (DCF fluorescence): could inhibit oxLDL-induced ROS production
[2]
  oxLDL-induced generation of reactive oxygen species (lucigenin fluorescence): could be blocked
MGP−/− mice; treated from day 1
  aortic tissue calcium (Alizarin red staining): reduction in tissue calcium levels
MGP−/− mice; treated from day 1, listed as compound 13
  aortic tissue calcium (Alizarin red staining): less calcification; also recorded: reduced vessel calcification
MGP−/− mice; day 1-28, compound 13 2.5 mg/kg/day IP, ALK3-Fc 2 mg/kg QOD IP
  arterial calcification by OsteoSense fluorescence: reduction of arterial calcification; also recorded: marked reduction in arterial calcification; also recorded: reduces vascular calcification
MGP−/− mice; fluorescent bisphosphonate probe, n=6 in each group
  reduction in aortic osteogenic activity compared to vehicle-treated controls: 81%
MGP−/− mice; vehicle 1.0±0.10
  aortic osteogenic activity, normalized average intensity ±SEM: 0.19±0.05
